Experimental data: US20230217975A1, “PERFUME COMPOSITION” (AJINOMOTO CO., INC., priority 2020, published 2023)

What was measured:
panel of 4 experts [1] = assay: Sensory evaluation of strength of mouth-coating feel in mayonnaise (Examples 1, 5, 6); format: in vivo; conditions: for strength of mouth-coating feel, single component compound (II) / strength of mouth-coating feel, two components compound (II) and cyclotene / strength of mouth-coating feel, two components compound (II) and β-caryophyllene oxide / strength of mouth-coating feel, three components compound (II), β-caryophyllene oxide, and cyclotene: compound (II) 10 weight ppb; for strength of mouth-coating feel, two components compound (II) and cyclotene / strength of mouth-coating feel, three components compound (II), β-caryophyllene oxide, and cyclotene: cyclotene 500 weight ppb; for strength of mouth-coating feel, two components compound (II) and β-caryophyllene oxide / strength of mouth-coating feel, three components compound (II), β-caryophyllene oxide, and cyclotene: β-caryophyllene oxide 500 weight ppb; for strength of mouth-coating feel, no use of compound (II), single component: 500 weight ppb as printed in b569; as to strength of mouth-coating feel, three components compound (II), β-caryophyllene oxide, and cyclotene: tested at 0.01 µg/mL; as to strength of mouth-coating feel, two components compound (II) and cyclotene: tested at 0.01 µg/mL; as to strength of mouth-coating feel, two components compound (II) and β-caryophyllene oxide: tested at 0.01 µg/mL
panel of 4 experts [2] = assay: as above; format: in vivo; conditions: for strength of mouth-coating feel, single component compound (I) / strength of mouth-coating feel, two components compound (I) and furfural / strength of mouth-coating feel, two components compound (I) and β-caryophyllene oxide / strength of mouth-coating feel, three components compound (I), β-caryophyllene oxide and furfural: compound (I) 10 weight ppb; for strength of mouth-coating feel, two components compound (I) and furfural / strength of mouth-coating feel, three components compound (I), β-caryophyllene oxide and furfural: furfural 500 weight ppb; for strength of mouth-coating feel, two components compound (I) and β-caryophyllene oxide / strength of mouth-coating feel, three components compound (I), β-caryophyllene oxide and furfural: β-caryophyllene oxide 500 weight ppb; for strength of mouth-coating feel, no use of compound (I), single component: 500 weight ppb
Text: As a positive control, general commercially available mayonnaise (manufactured by Ajinomoto Co., Inc., trade name “Pure Select (registered trade mark) mayonnaise”, oil and fat content: 73%) was used. As a negative control (NC), commercially available mayonnaise (manufactured by Ajinomoto Co., Inc., trade name “Pure Select (registered trade mark) KOKUUMA (registered trade mark) 65% Calorie Cut”, oil and fat content: 23%) with a smaller oil and fat content as compared with positive control mayonnaise was used.
Experimental samples were produced by adding at least one compound selected from cyclotene, β-caryophyllene oxide, and furfural to the aforementioned commercially available mayonnaise (manufactured by Ajinomoto Co., Inc., trade name “Pure Select (registered trade mark) KOKUUMA (registered trade mark) 65% Calorie Cut”, oil and fat content: 23%) used as the negative control, such that the concentration of each compound in the food (mayonnaise) was a concentration shown in the following Tables 1 to 3 (in the following, each experimental sample is also to be referred to as “sample of experimental plot 1-1” to “sample of experimental plot 1-39”).
Cyclotene, octanoic acid, and isovaleric acid were added to the aforementioned commercially available mayonnaise (manufactured by Ajinomoto Co., Inc., trade name “Pure Select (registered trade mark) KOKUUMA (registered trade mark) 65% Calorie Cut”, oil and fat content: 23%) used as the negative control, such that the concentration of cyclotene in the food (mayonnaise) was 100 weight ppb, the concentration of octanoic acid was 200 weight ppb, and the concentration of isovaleric acid was 100 weight ppb to produce the sample of control plot 1.
A sensory evaluation was performed on the strength of mouth-coating feel of experimental samples, and the presence or absence of off-flavor.
For the evaluation of a mouth-coating feel, a panel of 4 experts ate each mayonnaise of positive control, negative control and experimental sample (samples of experimental plots 1-1 to 1-39 and control plot 1), and graded each experimental sample in 0.1 point increments (non-blind) in the range of 0.0 to 5.0 points, with the positive control being 5.0 points and the negative control being 0.0 point, by averaging the obtained scores of the panel of 4 experts. When the score was 1.0 or more, it was determined that there was an effect of enhancing the mouth-coating feel. The panel of 4 experts was trained in advance so that they have common understanding as to the degree of change in the mouth-coating feel that is required to change the score by 0.1 point.
Experimental samples were produced by adding at least one compound selected from compound (I) shown in the following Table 8 (any of cyclotene, γ-butyrolactone, 2-methyltetrahydrofuran-3-one, α-angelicalactone, maltol, 3-methyl-1,2-cyclohexanedione, γ-dodecanolactone, 5-dodecanolide, 4,5-dimethyl-3-hydroxy-2,5-dihydrofuran-2-one, and D-camphor), β-caryophyllene oxide, and furfural to the aforementioned commercially available mayonnaise (manufactured by Ajinomoto Co., Inc., trade name “Pure Select (registered trade mark) KOKUUMA (registered trade mark) 65% Calorie Cut”, oil and fat content: 23%) used as the negative control. Compound (I) was added such that the concentration of compound (I) in the food (mayonnaise) was 10 weight ppb, β-caryophyllene oxide was added such that the concentration of β-caryophyllene oxide in the food (mayonnaise) was 500 weight ppb, and furfural was added such that the concentration of furfural in the food (mayonnaise) was 500 weight ppb.
A sensory evaluation was performed on the strength of mouth-coating feel of experimental samples in the same manner as in Example 1.

SMILES	strength of mouth-coating feel, single component compound (II) (panel of 4 experts [1])	strength of mouth-coating feel, two components compound (II) and cyclotene (panel of 4 experts [1])	strength of mouth-coating feel, two components compound (II) and β-caryophyllene oxide (panel of 4 experts [1])	strength of mouth-coating feel, three components compound (II), β-caryophyllene oxide, and cyclotene (panel of 4 experts [1])	strength of mouth-coating feel, single component compound (I) (panel of 4 experts [2])	strength of mouth-coating feel, two components compound (I) and furfural (panel of 4 experts [2])	strength of mouth-coating feel, two components compound (I) and β-caryophyllene oxide (panel of 4 experts [2])	strength of mouth-coating feel, three components compound (I), β-caryophyllene oxide and furfural (panel of 4 experts [2])	strength of mouth-coating feel, no use of compound (II), single component (panel of 4 experts [1])	strength of mouth-coating feel, no use of compound (I), single component (panel of 4 experts [2])
c1coc(Cn2cccc2)c1 [1-furfurylpyrrole]	0.2	2.4	2.2	4.1	–	–	–	–	–	–
CC(=O)c1ccc(C)o1 [2-acetyl-5-methylfuran]	0.2	2.2	2.2	4.4	–	–	–	–	–	–
CC(=O)c1ccco1 [2-acetylfuran]	0.2	2.4	2.0	4.3	–	–	–	–	–	–
CC1OCCC1=O (stereo not shown) [2-methyltetrahydrofuran-3-one]	–	–	–	–	0.5	2.4	3.2	4.2	–	–
CC(=O)c1cc(C)oc1C [3-acetyl-2,5-dimethylfuran]	0.2	2.5	2.0	4.2	–	–	–	–	–	–
CC1CCCC(=O)C1=O (stereo not shown) [3-methyl-1,2-cyclohexanedione]	–	–	–	–	0.5	2.3	3.0	4.4	–	–
CC1=C(O)C(=O)OC1C (stereo not shown) [4,5-dimethyl-3-hydroxy-2,5-dihydrofuran-2-one]	–	–	–	–	0.3	2.3	2.9	4.2	–	–
O=Cc1ccc(CO)o1 [5-(hydroxymethyl)furfural]	0.2	2.5	2.2	4.3	–	–	–	–	–	–
CCCCCCCC1CCCC(=O)O1 (stereo not shown) [5-dodecanolide]	–	–	–	–	0.5	2.4	3.2	4.2	–	–
Cc1ccc(C=O)o1 [5-methylfurfural]	0.2	2.4	2.1	4.2	–	–	–	–	–	–
CC1(C)[C@@H]2CC[C@@]1(C)C(=O)C2 [D-camphor]	–	–	–	–	0.4	2.6	3.1	4.2	–	–
CC1=C(O)C(=O)CC1 [cyclotene]	–	–	–	–	0.5	2.5	3.2	4.7	0.5	–
O=Cc1ccco1 [furfural]	0.3	2.2	2.2	4.7	–	–	–	–	–	0.3
OCc1ccco1 [furfuryl alcohol]	0.1	2.2	2.0	4.1	–	–	–	–	–	–
CCC(=O)OCc1ccco1 [furfuryl propionate]	0.2	2.4	2.2	4.3	–	–	–	–	–	–
Cc1occc(=O)c1O [maltol]	–	–	–	–	0.4	2.3	3.0	4.2	–	–
CC1=CCC(=O)O1 [α-angelicalactone]	–	–	–	–	0.5	2.3	2.9	4.2	–	–
C=C1CC[C@H]2O[C@]2(C)CC[C@@H]2[C@@H]1CC2(C)C [β-caryophyllene oxide]	–	–	–	–	–	–	–	–	1.5	1.5
O=C1CCCO1 [γ-butyrolactone]	–	–	–	–	0.5	2.2	3.2	4.2	–	–
